US20060276464A1, “Diarylsulfone sulfonamides and use thereof” (Wyeth, priority 2005, published 2006)
pEC50, pIC50: −log10 of the molar value.

Tests used:
SFRP-1 [1] = molecular target: T1, SFRP-1 (Homo sapiens, UniProt Q8N474); assay: Cell-based assay for in vitro measurement of SFRP-1/SARP2 antagonist activity (U2OS cells co-transfected with 16x TCF-tk-Luciferase reporter, Wnt and hSFRP-1); conditions: for fold induction at 10 µM: U2OS, read-out: Fold Induction with SFRP-1, U2OS cells, single dose 10 μM, luciferase reporter, fold induction over SFRP-1 control;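 as to all read-outs here: U2OS cells co-transfected with a TCF-tk luciferase reporter, a Wnt vector, hSFRP-1 or empty vector and CMV-βgal, luciferase luminescence read in cell lysates alongside βgal activity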
T1 sequence (Q8N474 32-314): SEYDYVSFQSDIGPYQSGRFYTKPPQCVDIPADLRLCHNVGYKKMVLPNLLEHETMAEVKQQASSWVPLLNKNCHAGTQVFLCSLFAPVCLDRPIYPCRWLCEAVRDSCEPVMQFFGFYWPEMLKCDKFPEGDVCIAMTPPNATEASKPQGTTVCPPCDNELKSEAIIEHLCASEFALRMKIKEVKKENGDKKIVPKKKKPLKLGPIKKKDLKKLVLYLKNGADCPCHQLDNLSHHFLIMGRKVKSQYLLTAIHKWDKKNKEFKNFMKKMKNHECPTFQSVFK

SFRP-1 [2] = molecular target: T1, SFRP-1; assay: Fluorescence polarization binding assay (competitive displacement of a probe compound from SFRP-1); conditions: fluorescence anisotropy, 45 nM SFRP-1, 20 nM probe;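 also: test compound competes with a fluorescent probe held by SFRP-1, seen as a drop in probe anisotropy after incubation in darkness, with anisotropy as function of rising compound dose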

SMILES	pEC50 (SFRP-1 [1])	fold induction at 10 µM (SFRP-1 [1])	pIC50 (SFRP-1 [2])	Fold Induction with SFRP-1 (SFRP-1 [1]; U2OS cells, single dose 10 μM, luciferase reporter, fold induction over SFRP-1 control)
CN(CCNS(=O)(=O)c1cc(S(=O)(=O)c2ccccc2)ccc1C(F)(F)F)C(=O)Nc1ccccc1 [Example 826, N-{2-[(anilinocarbonyl)(methyl)amino]ethyl}-5-(phenylsulfonyl)-2-(trifluoromethyl)benzenesulfonamide]	5.72	3.5	6.15	–
CN(CCNS(=O)(=O)c1cc(S(=O)(=O)c2ccccc2)ccc1C(F)(F)F)C(=O)Nc1cccnc1 [Example 827, N-(2-{methyl[(pyridin-3-ylamino)carbonyl]amino}ethyl)-5-(phenylsulfonyl)-2-(trifluoromethyl)benzenesulfonamide]	5.77	3.5	6.60	–
COc1ccc(NC(=O)N(C)CCNS(=O)(=O)c2cc(S(=O)(=O)c3ccccc3)ccc2C(F)(F)F)c(OC)c1 [Example 828, N-{2-[{[(2,4-dimethoxyphenyl)amino]carbonyl}(methyl)amino]ethyl}-5-(phenylsulfonyl)-2-(trifluoromethyl)benzenesulfonamide]	5.63	2.8	6.52	–
COc1ccc(NC(=O)N(C)CCNS(=O)(=O)c2cc(S(=O)(=O)c3ccccc3)ccc2C(F)(F)F)cc1 [Example 830, N-{2-[{[(4-methoxyphenyl)amino]carbonyl}(methyl)amino]ethyl}-5-(phenylsulfonyl)-2-(trifluoromethyl)benzenesulfonamide]	5.73	3.3	6.22	–
CN(CCNS(=O)(=O)c1cc(S(=O)(=O)c2ccccc2)ccc1C(F)(F)F)C(=O)Nc1ccc(F)cc1F [Example 832, N-{2-[{[(2,4-difluorophenyl)amino]carbonyl}(methyl)amino]ethyl}-5-(phenylsulfonyl)-2-(trifluoromethyl)benzenesulfonamide]	5.66	3.4	6.60	–
CN(CCNS(=O)(=O)c1cc(S(=O)(=O)c2ccccc2)ccc1C(F)(F)F)C(=O)N(C)c1ccccc1 [Example 836, N-[2-(methyl{[methyl(phenyl)amino]carbonyl}amino)ethyl]-5-(phenylsulfonyl)-2-(trifluoromethyl)benzenesulfonamide]	5.70	2.8	6.68	–
CN(CCNS(=O)(=O)c1cc(S(=O)(=O)c2ccccc2)ccc1C(F)(F)F)C(=O)c1ccc(C(C)(C)C)cc1 [Example 838, 4-tert-Butyl-N-methyl-N-[2-({[5-(phenylsulfonyl)-2-(trifluoromethyl)phenyl]sulfonyl}amino)ethyl]benzamide]	–	2.5	5.92	–
CN(CCNS(=O)(=O)c1cc(S(=O)(=O)c2ccccc2)ccc1C(F)(F)F)C(=O)c1ccccc1OC(F)(F)F [Example 839, N-Methyl-N-[2-({[5-(phenylsulfonyl)-2-(trifluoromethyl)phenyl]sulfonyl}amino)ethyl]-2-(trifluoromethoxy)benzamide]	5.62	3.5	6.52	–
O=S(=O)(NC1CCNC1)c1cc(S(=O)(=O)c2ccccc2)ccc1C(F)(F)F (centres unmarked) [Example 840, 5-(phenylsulfonyl)-N-pyrrolidin-3-yl-2-(trifluoromethyl)benzenesulfonamide]	–	2.9	6.10	–
Cc1ccc(S(=O)(=O)c2ccc(F)cc2)cc1S(=O)(=O)NC1C[C@@H](C)O[C@@H](C)C1 (stereo partly drawn) [Example 841, N-[(2R*,4S*,6S*)-2,6-dimethyltetrahydro-2H-pyran-4-yl]-5-[(4-fluorophenyl)sulfonyl]-2-methylbenzenesulfonamide]	–	–	4.74	1.6
CNc1ccc(S(=O)(=O)c2ccc(C(F)(F)F)c(S(=O)(=O)NC3CCNCC3)c2)cc1 [Example 842, 5-{[4-(methylamino)phenyl]sulfonyl}-N-piperidin-4-yl-2-(trifluoromethyl)benzenesulfonamide]	6.17	4.2	6.72	–
CN(C)c1ccc(S(=O)(=O)c2ccc(C(F)(F)F)c(S(=O)(=O)NC3CCNCC3)c2)cc1 [Example 843, 5-{[4-(dimethylamino)phenyl]sulfonyl}-N-piperidin-4-yl-2-(trifluoromethyl)benzenesulfonamide]	5.70	4.7	6.59	–
O=S(=O)(NC1CCNCC1)c1cc(S(=O)(=O)c2ccc(NCCO)cc2)ccc1C(F)(F)F [Example 844, 5-({4-[(2-hydroxyethyl)amino]phenyl}sulfonyl)-N-piperidin-4-yl-2-(trifluoromethyl)benzenesulfonamide]	6.30	4.4	6.80	–
O=S(=O)(NCCn1ccnc1)c1cc(S(=O)(=O)c2ccccc2F)ccc1C(F)(F)F [Example 845, 5-[(2-fluorophenyl)sulfonyl]-N-[2-(1H-imidazol-1-yl)ethyl]-2-(trifluoromethyl)benzenesulfonamide]	6.09	3.8	6.30	–

Continued, values first:

pEC50 (SFRP-1 [1])	fold induction at 10 µM (SFRP-1 [1])	pIC50 (SFRP-1 [2])	Fold Induction with SFRP-1 (SFRP-1 [1]; U2OS cells, single dose 10 μM, luciferase reporter, fold induction over SFRP-1 control)	SMILES
5.88	2.7	6.40	–	CN(CCNS(=O)(=O)c1cc(S(=O)(=O)c2ccccc2)ccc1C(F)(F)F)C(=O)NC(C)(C)C [Example 829, N-{2-[[(tert-butylamino)carbonyl](methyl)amino]ethyl}-5-(phenylsulfonyl)-2-(trifluoromethyl)benzenesulfonamide]
5.83	3.7	6.59	–	CCCCNC(=O)N(C)CCNS(=O)(=O)c1cc(S(=O)(=O)c2ccccc2)ccc1C(F)(F)F [Example 831, N-(2-[[(butylamino)carbonyl](methyl)amino]ethyl}-5-(phenylsulfonyl)-2-(trifluoromethyl)benzenesulfonamide]
5.90	3.4	6.40	–	CN(CCNS(=O)(=O)c1cc(S(=O)(=O)c2ccccc2)ccc1C(F)(F)F)C(=O)N1CCCC1 [Example 833, N-methyl-N-[2-({[5-(phenylsulfonyl)-2-(trifluoromethyl)phenyl]sulfonyl}amino)ethyl]pyrrolidine-1-carboxamide]
5.83	3	6.40	–	CCN(CC)C(=O)N(C)CCNS(=O)(=O)c1cc(S(=O)(=O)c2ccccc2)ccc1C(F)(F)F [Example 834, N-{2-[[(diethylamino)carbonyl](methyl)amino]ethyl}-5-(phenylsulfonyl)-2-(trifluoromethyl)benzenesulfonamide]
–	3.3	6.00	–	CN(CCNS(=O)(=O)c1cc(S(=O)(=O)c2ccccc2)ccc1C(F)(F)F)C(=O)N1CCOCC1 [Example 835, N-methyl-N-[2-({[5-(phenylsulfonyl)-2-(trifluoromethyl)phenyl]sulfonyl}amino)ethyl]morpholine-4-carboxamide]
6.19	3.4	6.74	–	CN(CCNS(=O)(=O)c1cc(S(=O)(=O)c2ccccc2)ccc1C(F)(F)F)C(=O)c1ccco1 [Example 837, N-Methyl-N-[2-({[5-(phenylsulfonyl)-2-(trifluoromethyl)phenyl]sulfonyl}amino)ethyl]-2-furamide]
